Reference: paper PMC8869358, “High-Throughput Chemical Screening and Structure-Based Models to Predict hERG Inhibition” (Biology, 2022)
Counter-ions that a name gives are not always drawn.

Molecular target: hERG (Homo sapiens, UniProt Q12809)
Assay: cell-based
Settings: (-LOG10(IC50), µM)

hERG, sequence (Q12809 whole entry): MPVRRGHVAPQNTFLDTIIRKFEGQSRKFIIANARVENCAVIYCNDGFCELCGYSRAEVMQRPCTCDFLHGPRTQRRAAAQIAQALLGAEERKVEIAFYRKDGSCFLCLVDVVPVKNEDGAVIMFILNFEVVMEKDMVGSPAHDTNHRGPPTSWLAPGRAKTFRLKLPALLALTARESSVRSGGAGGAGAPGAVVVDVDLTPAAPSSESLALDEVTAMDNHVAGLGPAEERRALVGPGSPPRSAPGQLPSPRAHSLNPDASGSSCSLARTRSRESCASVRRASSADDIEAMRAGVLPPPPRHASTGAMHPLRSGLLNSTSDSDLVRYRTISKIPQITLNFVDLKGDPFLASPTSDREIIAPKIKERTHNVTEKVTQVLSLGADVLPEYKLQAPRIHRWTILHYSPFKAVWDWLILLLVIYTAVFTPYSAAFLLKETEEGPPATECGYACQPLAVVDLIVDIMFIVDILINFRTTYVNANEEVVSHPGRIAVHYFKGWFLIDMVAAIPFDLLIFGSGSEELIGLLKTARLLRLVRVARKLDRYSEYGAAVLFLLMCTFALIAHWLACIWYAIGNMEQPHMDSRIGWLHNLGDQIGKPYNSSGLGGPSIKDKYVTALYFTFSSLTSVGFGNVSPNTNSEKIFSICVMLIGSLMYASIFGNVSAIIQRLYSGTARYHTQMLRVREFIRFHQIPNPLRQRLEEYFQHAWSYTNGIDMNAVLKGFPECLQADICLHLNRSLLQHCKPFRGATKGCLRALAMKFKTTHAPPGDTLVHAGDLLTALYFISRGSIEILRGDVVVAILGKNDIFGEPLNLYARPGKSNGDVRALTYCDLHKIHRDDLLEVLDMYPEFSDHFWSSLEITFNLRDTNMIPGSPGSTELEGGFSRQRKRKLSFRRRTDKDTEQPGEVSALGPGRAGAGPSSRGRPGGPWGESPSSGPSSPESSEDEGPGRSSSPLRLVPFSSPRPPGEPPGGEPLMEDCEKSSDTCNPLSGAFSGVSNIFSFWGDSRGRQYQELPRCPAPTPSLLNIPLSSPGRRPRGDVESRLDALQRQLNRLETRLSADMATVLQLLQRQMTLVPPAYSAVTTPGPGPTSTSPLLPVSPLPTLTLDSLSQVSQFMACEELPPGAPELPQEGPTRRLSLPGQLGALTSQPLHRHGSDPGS

Structure (SMILES) | IC50
COc1ccc(C(c2ccc(OC)cc2)C(Cl)(Cl)Cl)cc1 [Methoxychlor] | 20.5 µM
CN(C)CCOc1ccccc1Cc1ccccc1 [Phenyltoloxamine citrate] | 8.49 µM
CCCCCCCCCCCCCCCCn1cc[n+](C)c1 [1-Hexadecyl-3-methylimidazolium chloride] | 14.1 µM
CCc1cccc(N(C)C(N)=Nc2cccc3ccccc23)c1 [Aptiganel hydrochloride] | 10.3 µM
CCc1c(C(=O)NN2CCCCC2)nn(-c2ccc(Cl)cc2Cl)c1-c1ccc(Br)cc1 [Surinabant] | 6.92 µM
COc1ccc(-c2cc(C(F)F)nn2-c2ccc(S(N)(=O)=O)cc2)cc1F [Deracoxib] | 23.9 µM
Cc1ccc(C(=O)Oc2ccc(C(O)CNC(C)(C)C)cc2OC(=O)c2ccc(C)cc2)cc1 (stereo not drawn) [Bitolterol] | 5.78 µM
CCOC(CN1CCN(CC(C)C(=O)c2ccccc2)CC1)c1ccccc1 (stereo not drawn) [Eprazinone dihydrochloride] | 9.28 µM
CN(C)c1ccc(C(=C2C=CC(=[N+](C)C)C=C2)c2ccccc2)cc1 [Malachite green] | 4.25 µM
O=C1NC2CCCCN2C12CCN(CCCN1c3ccccc3CCc3ccc(Cl)cc31)CC2 (stereo not drawn) [Mosapramine] | 0.882 µM
CN1CCCN=C1COC(=O)C(O)(c1ccccc1)C1CCCCC1 (stereo not drawn) [Oxyphencyclimine hydrochloride] | 5.15 µM
N=C(N)NN=C(/C=C/c1ccc([N+](=O)[O-])o1)/C=C/c1ccc([N+](=O)[O-])o1 [Nitrovin] | 2.3 µM
Brc1ccccc1-c1ccccc1 [2-Bromobiphenyl] | 35.5 µM
CCCCCCCCCCCC[N+](C)(C)CCOc1ccccc1 [Domiphen bromide] | 1.34 µM
CCCCCCCCCCCCCCCC[N+](C)(C)Cc1ccccc1 [Benzylhexadecyldimethylammonium chloride] | 3.94 µM
CCCCC(CC)CN1C(=O)C2C3C=CC(C3)C2C1=O (stereo not drawn) [Octylbicycloheptenedicarboximide] | 49 µM
Cc1[nH]nc2c1N=C(c1ccccc1Cl)c1cc([N+](=O)[O-])ccc1N2 [PharmaGSID_48505] | 11.4 µM

Structure (SMILES) | IC50
NC(=O)c1nc(-c2cccc(-c3cc(F)ccc3OCC(F)(F)C(F)(F)F)c2)n[nH]1 [Potassium 5-carbamoyl-3-[5'-fluoro-2'-(2,2,3,3,3-pentafluoropropoxy)-3-biphenylyl]-1,2,4-triazol-1-ide hydrate (1:1:1)] | 47.1 µM
c1ccc(CN(CC2=NCCN2)c2ccccc2)cc1 [Antazoline hydrochloride] | 15.7 µM
CN1CCCC(CC2c3ccccc3Sc3ccccc32)C1 (stereo not drawn) [Metixene hydrochloride] | 4.77 µM
CC(C)C(=O)OCc1cccc(OC(=O)[C@@H]2N3C(=O)[C@@H](NC(=O)Cc4ccccc4)[C@H]3SC2(C)C)c1 [Tobicillin] | 20.5 µM
CCOC(=O)Nc1ccc(NCc2ccc(F)cc2)nc1N [Flupirtine maleate] | 19 µM
CCN1CCCC(OC(=O)C(c2ccccc2)c2ccccc2)C1 (stereo not drawn) [Crapinon] | 5.35 µM
CCCCCCOC(=O)c1ccccc1O [Hexyl salicylate] | 18.8 µM
CN(c1nccc(=O)[nH]1)C1CCN(c2nc3ccccc3n2Cc2ccc(F)cc2)CC1 [Mizolastine] | 2.21 µM
CCOC(=O)C(C)Oc1ccc(Oc2nc3ccc(Cl)cc3o2)cc1 (stereo not drawn) [Fenoxaprop-ethyl] | 30.9 µM
CN(C)[C@@H](CCOc1cccc2ccccc12)c1ccccc1 [Dapoxetine] | 7.56 µM
CCOC(=O)O[C@H](C)OC(=O)c1ccc2c(c1)cc(C(=O)NC1CCN(C(C)C)CC1)n2Cc1cc(-c2ccc(Cl)s2)on1 [AVE6324] | 8.14 µM
C=CC(C)(O)CCC=C(C)CCC=C(C)C (stereo not drawn) [Nerolidol] | 47.1 µM
CN(Cc1ccc(C(C)(C)C)cc1)Cc1cccc2ccccc12 [Butenafine] | 12 µM
Cc1nccn1-c1ccc(Sc2cccc(C3(C(N)=O)CCOCC3)c2)cc1 [CJ-013610] | 47.1 µM
C=CCNc1nc(NCC=C)nc(N2CCN(C(c3ccc(F)cc3)c3ccc(F)cc3)CC2)n1 [Almitrine dimethanesulfonate] | 6.01 µM
CCCCCCCC[n+]1ccn(C)c1 [1-Methyl-3-octylimidazolium chloride] | 19.4 µM
